Experiments:
Male DBA/2J mice = assay: Intravenous nicotine self-administration in drug-naive mice; assay type: in vivo, mouse
Procedure: Acute self-administration of nicotine was carried out using a previously described method (Semenova et al. 1995, 1999; Kuzmin et al. 1996a, 1997). The tails of the mice were fixed to the surface of the apparatus during the testing sessions to allow drug delivery; the fixing of the tail allowed the mice to move all of their four paws, head and entire body. […] The only cue associated with the delivery of the drug or vehicle infusion was the noise of the pump. Mice were tested either once or twice, with approximately one month between each test. The second test only occurred in a subset of the original set of mice (2-7 pairs of mice from each of the original groups). This was done to increase the number of subjects/condition, and involved randomly assigning and testing these mice under a different set of conditions than in the original test (i.e., different nicotine and/or MPEP dose).
Saline or one of four nicotine doses (0.016, 0.048, 0.16, 0.48 μg/inf) were made available to different groups of animals. Each group consisted of 9-17 pairs of animals, including 2-7 mice per group that had previously undergone one testing session at least one month previously (see above). Pre-treatment with MPEP (0, 5, 10, 20 mg/kg intraperitoneally) occurred 15 minutes prior to the initiation of the test session.
Data analyses were based on the comparison of both active and passive mouse nose-pokes in each pair, using the formula: R=log(AT/PT)−log(ABL/PBL), where (AT/PT) is the ratio of the total number of active versus passive mouse nose-pokes during the 30-min test, and (ABL/PBL) is the ratio of the total number of active versus passive mouse nose-pokes during the 10-min pre-test. […] Some data-points (9/237 pairs of mice) were excluded from the final analyses based on whether or not they lay within 2 standard deviations of the group mean for that specific condition. Nicotine self-administration data, obtained after saline pre-treatment, were analyzed using a one-way ANOVA with nicotine (4 levels) defined as the between-subjects factor. R-criterion data were analyzed using two-way ANOVAs with MPEP dose (4 levels) and nicotine dose (4 levels) defined as the between-subjects factors. Pre-planned R-criterion data analyses were performed using one-way ANOVAs for each available dose of self-administered nicotine and saline, with MPEP dose (4 levels) defined as the between-subject factor. Appropriate individual comparisons were performed using the Student-Newman-Keuls post hoc test. […] Body weights and pre-test nose-poke activity levels were analyzed with three-way ANOVAs (nicotine dose, MPEP dose and mouse, i.e. active/passive, defined as between-subjects factors).

Wistar rats = assay: Cocaine-induced lowering of ICSS thresholds; assay type: in vivo, rat
[1] = MPEP 5 mg/kg, Nicotine 0 μg/inf
[2] = MPEP 5 mg/kg, Nicotine 0.016 μg/inf
[3] = MPEP 5 mg/kg, Nicotine 0.048 μg/inf
[4] = MPEP 5 mg/kg, Nicotine 0.16 μg/inf
[5] = MPEP 5 mg/kg, Nicotine 0.48 μg/inf
[6] = MPEP 10 mg/kg, Nicotine 0 μg/inf
[7] = MPEP 10 mg/kg, Nicotine 0.016 μg/inf
[8] = MPEP 10 mg/kg, Nicotine 0.048 μg/inf
[9] = MPEP 10 mg/kg, Nicotine 0.16 μg/inf
[10] = MPEP 10 mg/kg, Nicotine 0.48 μg/inf
[11] = MPEP 20 mg/kg, Nicotine 0 μg/inf
[12] = MPEP 20 mg/kg, Nicotine 0.016 μg/inf
[13] = MPEP 20 mg/kg, Nicotine 0.048 μg/inf
[14] = MPEP 20 mg/kg, Nicotine 0.16 μg/inf
[15] = MPEP 20 mg/kg, Nicotine 0.48 μg/inf
[16] = MPEP 3 mg/kg, 10, 40, 70 and 100 min

Structure (SMILES): Cc1cccc(C#Cc2ccccc2)n1 [MPEP, 2-methyl-6-(phenylethynyl)-pyridine]
- total self-injected nicotine dose (Male DBA/2J mice; 0.048 μg/inf nicotine): no significant effect of MPEP on total self-injected nicotine dose
- R-criterion (Male DBA/2J mice; 20 mg/kg MPEP, 0.048 μg/inf nicotine): a trend for 20 mg/kg MPEP to decrease the R-criterion below zero
- nose-pokes, active pre-test (Male DBA/2J mice; [1]): 8.19 ± 1.03 responses per minute
- nose-pokes, active test (Male DBA/2J mice; [1]): 4.99 ± 1.17 responses per minute
- nose-pokes, passive pre-test (Male DBA/2J mice; [1]): 8.38 ± 0.96 responses per minute
- nose-pokes, passive test (Male DBA/2J mice; [1]): 6.41 ± 1.38 responses per minute
- nose-pokes, active pre-test (Male DBA/2J mice; [2]): 7.86 ± 0.87 responses per minute
- nose-pokes, active test (Male DBA/2J mice; [2]): 2.62 ± 0.49 responses per minute
- nose-pokes, passive pre-test (Male DBA/2J mice; [2]): 8.01 ± 0.91 responses per minute
- nose-pokes, passive test (Male DBA/2J mice; [2]): 3.46 ± 0.74 responses per minute
- nose-pokes, active pre-test (Male DBA/2J mice; [3]): 9.13 ± 1.37 responses per minute
- nose-pokes, active test (Male DBA/2J mice; [3]): 3.43 ± 0.67 responses per minute
- nose-pokes, passive pre-test (Male DBA/2J mice; [3]): 8.93 ± 1.36 responses per minute
- nose-pokes, passive test (Male DBA/2J mice; [3]): 4.45 ± 1.06 responses per minute
- nose-pokes, active pre-test (Male DBA/2J mice; [4]): 8.32 ± 0.94 responses per minute
- nose-pokes, active test (Male DBA/2J mice; [4]): 4.67 ± 0.95 responses per minute
- nose-pokes, passive pre-test (Male DBA/2J mice; [4]): 8.48 ± 3.31 responses per minute
- nose-pokes, passive test (Male DBA/2J mice; [4]): 4.32 ± 2.37 responses per minute
- nose-pokes, active pre-test (Male DBA/2J mice; [5]): 8.12 ± 1.17 responses per minute
- nose-pokes, active test (Male DBA/2J mice; [5]): 3.04 ± 0.73 responses per minute
- nose-pokes, passive pre-test (Male DBA/2J mice; [5]): 8.58 ± 1.38 responses per minute
- nose-pokes, passive test (Male DBA/2J mice; [5]): 3.25 ± 0.88 responses per minute
- nose-pokes, active pre-test (Male DBA/2J mice; [6]): 7.95 ± 0.99 responses per minute
- nose-pokes, active test (Male DBA/2J mice; [6]): 4.92 ± 1.1 responses per minute
- nose-pokes, passive pre-test (Male DBA/2J mice; [6]): 8.00 ± 1.06 responses per minute
- nose-pokes, passive test (Male DBA/2J mice; [6]): 5.86 ± 1.56 responses per minute
- nose-pokes, active pre-test (Male DBA/2J mice; [7]): 7.79 ± 0.83 responses per minute
- nose-pokes, active test (Male DBA/2J mice; [7]): 6.48 ± 1.05 responses per minute
- nose-pokes, passive pre-test (Male DBA/2J mice; [7]): 8.22 ± 0.87 responses per minute
- nose-pokes, passive test (Male DBA/2J mice; [7]): 4.26 ± 0.94 responses per minute
- nose-pokes, active pre-test (Male DBA/2J mice; [8]): 7.43 ± 0.98 responses per minute
- nose-pokes, active test (Male DBA/2J mice; [8]): 3.92 ± 1.18 responses per minute
- nose-pokes, passive pre-test (Male DBA/2J mice; [8]): 8.06 ± 1.39 responses per minute
- nose-pokes, passive test (Male DBA/2J mice; [8]): 5.83 ± 1.72 responses per minute
- nose-pokes, active pre-test (Male DBA/2J mice; [9]): 7.12 ± 0.66 responses per minute
- nose-pokes, active test (Male DBA/2J mice; [9]): 4.19 ± 0.81 responses per minute
- nose-pokes, passive pre-test (Male DBA/2J mice; [9]): 7.20 ± 0.69 responses per minute
- nose-pokes, passive test (Male DBA/2J mice; [9]): 4.62 ± 0.82 responses per minute
- nose-pokes, active pre-test (Male DBA/2J mice; [10]): 7.49 ± 0.86 responses per minute
- nose-pokes, active test (Male DBA/2J mice; [10]): 3.58 ± 0.73 responses per minute
- nose-pokes, passive pre-test (Male DBA/2J mice; [10]): 7.48 ± 0.88 responses per minute
- nose-pokes, passive test (Male DBA/2J mice; [10]): 3.81 ± 0.47 responses per minute
- nose-pokes, active pre-test (Male DBA/2J mice; [11]): 6.98 ± 1.18 responses per minute
- nose-pokes, active test (Male DBA/2J mice; [11]): 5.96 ± 1.69 responses per minute
- nose-pokes, passive pre-test (Male DBA/2J mice; [11]): 8.50 ± 1.43 responses per minute
- nose-pokes, passive test (Male DBA/2J mice; [11]): 6.33 ± 1.66 responses per minute
- nose-pokes, active pre-test (Male DBA/2J mice; [12]): 7.10 ± 0.87 responses per minute
- nose-pokes, active test (Male DBA/2J mice; [12]): 5.48 ± 1.09 responses per minute
- nose-pokes, passive pre-test (Male DBA/2J mice; [12]): 7.35 ± 0.85 responses per minute
- nose-pokes, passive test (Male DBA/2J mice; [12]): 8.77 ± 1.85 responses per minute
- nose-pokes, active pre-test (Male DBA/2J mice; [13]): 8.36 ± 1.07 responses per minute
- nose-pokes, active test (Male DBA/2J mice; [13]): 3.56 ± 1.04 responses per minute
- nose-pokes, passive pre-test (Male DBA/2J mice; [13]): 8.31 ± 1.28 responses per minute
- nose-pokes, passive test (Male DBA/2J mice; [13]): 5.29 ± 1.11 responses per minute
- nose-pokes, active pre-test (Male DBA/2J mice; [14]): 7.50 ± 1.25 responses per minute
- nose-pokes, active test (Male DBA/2J mice; [14]): 5.06 ± 1.52 responses per minute
- nose-pokes, passive pre-test (Male DBA/2J mice; [14]): 7.56 ± 1.32 responses per minute
- nose-pokes, passive test (Male DBA/2J mice; [14]): 7.97 ± 1.76 responses per minute
- nose-pokes, active pre-test (Male DBA/2J mice; [15]): 7.31 ± 0.98 responses per minute
- nose-pokes, active test (Male DBA/2J mice; [15]): 4.67 ± 1.22 responses per minute
- nose-pokes, passive pre-test (Male DBA/2J mice; [15]): 7.08 ± 0.94 responses per minute
- nose-pokes, passive test (Male DBA/2J mice; [15]): 4.35 ± 0.98 responses per minute
- nicotine self-administration (R-criterion) (Male DBA/2J mice; MPEP 5, 10, 20 mg/kg, 0.048 μg/inf nicotine): significantly reduced nicotine self-administration at all doses tested
- nose-poke responding (Male DBA/2J mice; active mice, 0.048 μg/inf nicotine): significantly decreased nose-poke responding in the active mice
- duration of cocaine-induced lowering of ICSS thresholds (Wistar rats; MPEP 3 mg/kg): did not attenuate the duration of time that cocaine lowered ICSS thresholds
- ICSS Thresholds (Wistar rats; [16]): had no effect on ICSS thresholds at any time-point
- ICSS response Latencies (Wistar rats; [16]): had no effect on response latencies at any time-point
- ICSS Thresholds (Wistar rats; MPEP 9 mg/kg before cocaine 10 mg/kg, compared to cocaine-treated rats that received vehicle): significantly elevated in cocaine-treated rats that previously received MPEP (9 mg/kg) compared to cocaine-treated rats that received vehicle injection
- ICSS Thresholds (Wistar rats; MPEP 9 mg/kg before cocaine 10 mg/kg, compared to saline-treated rats pretreated with vehicle): still significantly lowered compared to saline-treated rats pretreated with vehicle
- magnitude of cocaine-induced lowering of ICSS thresholds (Wistar rats; MPEP 1-9 mg/kg): did not attenuate the magnitude of the lowering in ICSS thresholds observed after systemic cocaine administration
- ICSS Thresholds (Wistar rats; MPEP alone, 6 and 9 mg/kg significant): significantly elevated ICSS thresholds
- ICSS response Latencies (Wistar rats; MPEP, only the highest dose (9 mg/kg)): significantly increased response latencies
